A word on the inhibition: it is the relative decrease from the control value, in per cent.

Counter-ions that a name gives are not always drawn.

The target of one assay is T1, human B1R receptor (Homo sapiens, UniProt P46663).
T1 construct: host or cells: CHO K1 cells (Chinese hamster ovary), stably transfected
T1 sequence (P46663 1-353): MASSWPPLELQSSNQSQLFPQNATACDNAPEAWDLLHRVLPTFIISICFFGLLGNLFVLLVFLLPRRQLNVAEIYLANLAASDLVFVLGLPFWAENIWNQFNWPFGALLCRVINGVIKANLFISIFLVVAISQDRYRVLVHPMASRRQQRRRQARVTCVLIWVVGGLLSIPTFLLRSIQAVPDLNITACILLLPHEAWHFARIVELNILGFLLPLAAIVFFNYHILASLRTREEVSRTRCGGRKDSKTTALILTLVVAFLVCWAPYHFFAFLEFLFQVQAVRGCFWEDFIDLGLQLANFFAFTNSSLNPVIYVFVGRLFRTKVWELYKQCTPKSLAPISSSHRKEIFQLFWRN
Description: Functional study on the bradykinin receptor 1 (B1R), FLIPR Ca2+ assay, hB1R cells. To be noted: agonist Lys-Des-Arg9-bradykinin 0.5 nM, % inhibition compared with the maximum achievable inhibition; for inhibition at 10 µM: CHO-K1, test substance 10 μM, read-out: B1R Antagonism, human [10 μM] % Inhibition; for B1R Antagonism, human [10 μM] % Inhibition: test substance 10 μM, hB1R CHO K1 cells. The assay is classed as cell-based. In short, it runs like this: (§1)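 FLIPR Ca2+ assay in recombinant CHO K1 cells (human or rat B1R), Fluo-4 dye; 10 μM compound, 10 min, then EC-level agonist per species (0.5 nM Lys-Des-Arg9-BK human / 100 nM Des-Arg9-BK rat). Output: % inhibition vs maximum.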

The next assay has as its target T2, B1R receptor of the rat (Rattus norvegicus, UniProt P97583).
T2 construct: host or cells: CHO K1 cells (Chinese hamster ovary), stably transfected
T2 sequence (P97583 1-337): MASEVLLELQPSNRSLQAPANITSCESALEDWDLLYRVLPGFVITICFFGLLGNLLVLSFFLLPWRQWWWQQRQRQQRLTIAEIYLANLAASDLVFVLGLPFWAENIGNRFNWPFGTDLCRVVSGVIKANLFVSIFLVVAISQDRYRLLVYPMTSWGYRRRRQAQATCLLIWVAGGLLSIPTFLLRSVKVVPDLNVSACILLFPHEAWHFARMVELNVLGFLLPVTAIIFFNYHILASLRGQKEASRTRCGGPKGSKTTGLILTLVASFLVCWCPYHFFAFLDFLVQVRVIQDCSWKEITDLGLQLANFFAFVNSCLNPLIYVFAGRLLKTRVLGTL
Put plainly: Functional study on the bradykinin receptor 1 (B1R), FLIPR Ca2+ assay, rB1R cells. The assay is classed as cell-based. To be noted: agonist Des-Arg9-bradykinin 100 nM, % inhibition compared with the maximum achievable inhibition; for inhibition at 10 µM: CHO-K1, test substance 10 μM, read-out: B1R Antagonism, rat [10 μM] % Inhibition; for B1R Antagonism, rat [10 μM] % Inhibition: test substance 10 μM, rB1R CHO K1 cells. The method in brief:
as §1

Consider `CN1CCN(c2ccc(CNC(=O)COCC3CCCCN3S(=O)(=O)c3c(Cl)cc(Cl)cc3Cl)cc2)CC1` (centres unmarked) [Example 13, N-[4-(4-methyl-piperazin-1-yl)-benzyl]-2-[1-(2,4,6-trichloro-phenylsulfonyl)-piperidin-2-ylmethoxy]-acetamide], for which the inhibition at 10 µM on human B1R receptor stood at 97.7%; on B1R receptor of the rat, 113%.

`Cc1cc(C)c(S(=O)(=O)N2CCCCC2COCC(=O)N2CCC(N3CCN(C)CC3)CC2)c(C)c1` (centres unmarked) [Example 231, 2-((1-(mesitylsulfonyl)piperidin-2-yl)methoxy)-1-(4-(4-methylpiperazin-1-yl)piperidin-1-yl)ethanone]: the results for the inhibition at 10 µM on human B1R receptor and on B1R receptor of the rat were 102% and 83.3%, respectively.

For the compound `O=C(COCC1CCCCN1S(=O)(=O)c1c(Cl)cc(Cl)cc1Cl)N1CCC(c2ccncc2)C1` (centres unmarked) [Example 390, 1-(3-(pyridin-4-yl)pyrrolidin-1-yl)-2-((1-(2,4,6-trichlorophenylsulfonyl)piperidin-2-yl)methoxy)ethanone], the inhibition at 10 µM turned out to be 103% on human B1R receptor and 99.8% at B1R receptor of the rat.

Take `O=C(COCC1CCCCN1S(=O)(=O)c1c(Cl)cccc1Cl)N1CCC(N2CCCCC2)CC1` (centres unmarked) [Example 336, 1-(1,4′-bipiperidin-1′-yl)-2-((1-(2,6-dichlorophenylsulfonyl)piperidin-2-yl)methoxy)ethanone]: the inhibition at 10 µM came to 103% at human B1R receptor and 105% on B1R receptor of the rat.

As to `COc1cc(C)c(S(=O)(=O)N2CCCCC2COCC(=O)NCc2ccc(N3CCCCC3)cc2)c(C)c1` (centres unmarked) [Example 14, 2-[1-(4-methoxy-2,6-dimethyl-phenylsulfonyl)-piperidin-2-ylmethoxy]-N-(4-piperidin-1-yl-benzyl)-acetamide], the values for the inhibition at 10 µM on human B1R receptor and on B1R receptor of the rat were 97% and 104%, respectively.

Consider `Cc1cc(C)c(S(=O)(=O)N2Cc3ccccc3CC2COCC(=O)NCc2cccc(N3CCOCC3)c2)c(C)c1` (centres unmarked) [Example 50, N-(3-morpholin-4-yl-benzyl)-2-[2-(2,4,6-trimethyl-phenylsulfonyl)-1,2,3,4-tetrahydro-isoquinolin-3-ylmethoxy]-acetamide], for which the results for the inhibition at 10 µM at human B1R receptor and at B1R receptor of the rat were 65.7% and 50.3%, respectively.

Consider `CCN1CCN(C(=O)COCC2CCCN2S(=O)(=O)c2c(C)cc(OC)cc2C)CC1` (centres unmarked) [Example 517, 1-(4-ethylpiperazin-1-yl)-2-((1-(4-methoxy-2,6-dimethylphenylsulfonyl)pyrrolidin-2-yl)methoxy)ethanone], for which the inhibition at 10 µM was found to be 98.8% at human B1R receptor and 102% on B1R receptor of the rat.

Regarding `COc1cc(C)c(S(=O)(=O)N2CCCCC2COCC(=O)NCCCN2CCN(Cc3ccccc3)CC2)c(C)c1` (centres unmarked) [Example 411, N-(3-(4-benzylpiperazin-1-yl)propyl)-2-((1-(4-methoxy-2,6-dimethylphenylsulfonyl)piperidin-2-yl)methoxy)acetamide], the inhibition at 10 µM turned out to be 101% at human B1R receptor and 100% at B1R receptor of the rat.

In the case of `COc1cc(C)c(S(=O)(=O)N2CCCCC2COCC(=O)NCc2ccccc2N2CCN(C)CC2)c(C)c1` (centres unmarked) [Example 432, 2-((1-(4-methoxy-2,6-dimethylphenylsulfonyl)piperidin-2-yl)methoxy)-N-(2-(4-methylpiperazin-1-yl)benzyl)acetamide], the figures for the inhibition at 10 µM at human B1R receptor and at B1R receptor of the rat were 94% and 100%, respectively.

Regarding `COc1cc(C)c(S(=O)(=O)N2CCCC2COCC(=O)N2CCN(Cc3ccccc3F)CC2)c(C)c1` (centres unmarked) [Example 444, 1-(4-(2-fluorobenzyl)piperazin-1-yl)-2-((1-(4-methoxy-2,6-dimethylphenylsulfonyl)pyrrolidin-2-yl)methoxy)ethanone], the inhibition at 10 µM on human B1R receptor was found to be 92.8%; on B1R receptor of the rat, 98.6%.

On to `O=C(COCC1CCCCN1S(=O)(=O)c1ccc(Cl)c(Cl)c1)Nc1cccc(CN2CCCC2)c1` (centres unmarked) [Example 293, 2-((1-(3,4-dichlorophenylsulfonyl)piperidin-2-yl)methoxy)-N-(3-(pyrrolidin-1-ylmethyl)phenyl)acetamide], for which the inhibition at 10 µM was 90.5% on human B1R receptor and -6.96% at B1R receptor of the rat.

Regarding `COc1cc(C)c(S(=O)(=O)N2CCCC2COCC(=O)N2CCN(Cc3cccc(C#N)c3)CC2)c(C)c1` (centres unmarked) [Example 93, 3-((4-(2-((1-(4-methoxy-2,6-dimethylphenylsulfonyl)pyrrolidin-2-yl)methoxy)acetyl)-piperazin-1-yl)methyl)benzonitrile hydrochloride], the inhibition at 10 µM on human B1R receptor was 106%; at B1R receptor of the rat, 99.1%.

Consider `Cc1cc(C)nc(CC2CCCN2C(=O)COCC2CCCCN2S(=O)(=O)c2cccc3ccccc23)c1` (centres unmarked) [Example 240, 1-(2-((4,6-dimethylpyridin-2-yl)methyl)pyrrolidin-1-yl)-2-((1-(naphthen-1-ylsulfonyl)piperidin-2-yl)methoxy)ethanone], for which the “B1R Antagonism, human [10 μM] % Inhibition” value on human B1R receptor is 78.48%. Also, the “B1R Antagonism, rat [10 μM] % Inhibition” value at B1R receptor of the rat worked out at 97.3%.

For `O=C(COCC1CCCCN1S(=O)(=O)c1c(Cl)cccc1Cl)N1CCN(Cc2ccc(Cl)c(Cl)c2)CC1` (centres unmarked) [Example 405, 1-(4-(3,4-dichlorobenzyl)piperazin-1-yl)-2-((1-(2,6-dichlorophenylsulfonyl)piperidin-2-yl)methoxy)ethanone], the inhibition at 10 µM at human B1R receptor was determined as 98.6%; on B1R receptor of the rat, 100%.

For the compound `Cc1cccc(Cl)c1S(=O)(=O)N1CCC[C@H]1COCC(=O)N1CCN(C2CCN(C)CC2)CC1` [Example 162, (S)-2-((1-(2-chloro-6-methylphenylsulfonyl)pyrrolidin-2-yl)methoxy)-1-(4-(1-methylpiperidin-4-yl)piperazin-1-yl)ethanone dihydrochloride], the inhibition at 10 µM at human B1R receptor and on B1R receptor of the rat was 99.5% each time.

For the compound `O=C(COCC1CCCCN1S(=O)(=O)c1ccc(Cl)c(Cl)c1)N1CCOC(CN2CCCCC2)C1` (centres unmarked) [Example 266, 2-((1-(3,4-dichlorophenylsulfonyl)piperidin-2-yl)methoxy)-1-(2-(piperidin-1-ylmethyl)morpholino)ethanone], the inhibition at 10 µM on human B1R receptor worked out at 102%; at B1R receptor of the rat it was 2.12%.

Regarding `COc1cc(C)c(S(=O)(=O)N2CCCC2COCC(=O)N2CCN(CC3CCCCC3)CC2)c(C)c1` (centres unmarked) [Example 492, 1-(4-(cyclohexylmethyl)piperazin-1-yl)-2-((1-(4-methoxy-2,6-dimethylphenylsulfonyl)pyrrolidin-2-yl)methoxy)ethanone], the inhibition at 10 µM was determined as 103% on human B1R receptor and 104% on B1R receptor of the rat.

As for `CN1CCC(N2CCN(C(=O)COCC3CCCCN3S(=O)(=O)c3ccc4c(c3)CCCC4)CC2)CC1` (centres unmarked) [Example 179, 1-(4-(1-methylpiperidin-4-yl)piperazin-1-yl)-2-((1-(5,6,7,8-tetrahydronaphthalen-2-ylsulfonyl)piperidin-2-yl)methoxy)ethanone dihydrochloride], the inhibition at 10 µM is 104% on human B1R receptor and 100% on B1R receptor of the rat.

For the compound `COc1ccc(C(CNC(=O)COCC2CCCCN2S(=O)(=O)c2c(C)cc(OC)cc2C)N2CCCC2)cc1` (centres unmarked) [Example 252, 2-((1-(4-methoxy-2,6-dimethylphenylsulfonyl)piperidin-2-yl)methoxy)-N-(2-(4-methoxyphenyl)-2-(pyrrolidin-1-yl)ethyl)acetamide], the inhibition at 10 µM on human B1R receptor turned out to be 102%; on B1R receptor of the rat, 97.9%.

With `COc1cc(C)c(S(=O)(=O)N2CCCCC2COCC(=O)NCc2ccc(N3CCN(C)CC3)cc2)c(C)c1` (centres unmarked) [Example 3, 2-[1-(4-methoxy-2,6-dimethyl-phenylsulfonyl)-piperidin-2-ylmethoxy]-N-[4-(4-methyl-piperazin-1-yl)-benzyl]-acetamide], at human B1R receptor, the “B1R Antagonism, human [10 μM] % Inhibition” value was 103.84%. On B1R receptor of the rat, the “B1R Antagonism, rat [10 μM] % Inhibition” value is reported as 108.97%.

As to `COc1cc(C)c(S(=O)(=O)N2CCCCC2COCC(=O)NCc2cccc(N3CCCCC3)c2)c(C)c1` (centres unmarked) [Example 430, 2-((1-(4-methoxy-2,6-dimethylphenylsulfonyl)piperidin-2-yl)methoxy)-N-(3-(piperidin-1-yl)benzyl)acetamide], the inhibition at 10 µM at human B1R receptor was determined as 38.6%; on B1R receptor of the rat, 101%.

For the compound `CN1CCC(N2CCN(C(=O)COCC3CCCCN3S(=O)(=O)c3ccccc3C(F)(F)F)CC2)CC1` (centres unmarked) [Example 571, 1-(4-(1-methylpiperidin-4-yl)piperazin-1-yl)-2-((1-(2-(trifluoromethyl)phenylsulfonyl)piperidin-2-yl)methoxy)ethanone], the values for the inhibition at 10 µM on human B1R receptor and at B1R receptor of the rat were 104% and 100%, respectively.

The record behind these values is patent US8435978B2, “Substituted sulfonamide compounds” (Gruenenthal GmbH, priority 2006, dated 2013).
